Assay results reported in patent US4185032A, “Ureylene phenylene anionic naphthalenesulfonic acids” (American Cyanamid Company, priority 1978, dated 1980).
Structures can show the parent of a compound that is named as a salt.

Legend:
[1] = tested on: whole complement; assay: Complement Level Reduction Test (in vivo, guinea pig; serum whole complement by capillary tube assay)
Excerpt: (§1) An active inhibitor protects C2 from C1 and C4; (ii) Test Code 035 (C3-C9 inhibitor)--This test determines the ability of the late components of human complement (C3-C9) to lyse EAC 142 in the presence of appropriate dilutions of the test compound. An active inhibitor protects EAC 142 from lysis by human C3-C9; (iii) Test Code 036 (C-Shunt inhibitor)--In this test human erythrocytes rendered fragile are lysed in autologous serum via the shunt pathway activated by cobra venom factor in the presence of appropriate dilutions of the test compound. Inhibition of the shunt pathway results in failure of lysis; (iv) Forssman Vasculitis Test--Here, the well known complement dependent lesion, Forssman vasculitis, is produced in guinea pigs by intradermal injection of rabbit anti-Forssman antiserum. The lesion is measured in terms of diameter, edema and hemorrhage and the extent to which a combined index of these is inhibited by prior intraperitoneal injection of the test compound at 200 mg/kg is then reported, unless otherwise stated; (v) Forssman Shock Test--Lethal shock is produced in guinea pigs by an i.v. injection of anti-Forssman antiserum and the harmonic mean death time of treated guinea pigs is compared with that of simultaneous controls; (vi) Complement Level Reduction Test--In this test, the above dosed guinea pigs, or others, are bled for serum and the complement level is determined in undiluted serum by the capillary tube method of U.S. Pat. No. 3,876,376 and compared to undosed control guinea pigs; and (viii) Cap 50 Test--Here, appropriate amounts of the test compound are added to a pool of guinea pig serum in vitro, after which the undiluted serum capillary tube assay referred to about is run. The concentration of compound inhibiting 50% is reported.
With reference to Table I. guinea pigs weighing about 300 g were dosed intravenously (i.v.) or intraperitoneally (i.p.) with 200 mg/kg of the test compound dissolved in saline and adjusted to pH 7-8. […] The serum was tested for whole complement using the capillary tube assay. Percent inhibition was calculated by comparison with simultaneous controls. The results appear in Table I together with results of tests code 026, 035, 036, Cap 50, % inhibition and Forssman shock.

[2] = tested on: late components of human complement (C3-C9); assay: Test Code 035 (C3-C9 inhibitor), lysis of EAC 142; format: cell-based
Excerpt: as §1

[3] = tested on: shunt pathway; assay: Test Code 036 (C-Shunt inhibitor), lysis of human erythrocytes via the shunt pathway activated by cobra venom factor; format: cell-based
Excerpt: as §1

[4] = target: T1, activated human C1 (Homo sapiens, UniProt P09871); assay: Test Code 026 (C1 inhibitor); format: biochemical; conditions: well number in twofold serial dilution assay, higher = more active
T1 construct: fluid-phase human C2 as substrate in presence of C4
T1 sequence (P09871 16-688): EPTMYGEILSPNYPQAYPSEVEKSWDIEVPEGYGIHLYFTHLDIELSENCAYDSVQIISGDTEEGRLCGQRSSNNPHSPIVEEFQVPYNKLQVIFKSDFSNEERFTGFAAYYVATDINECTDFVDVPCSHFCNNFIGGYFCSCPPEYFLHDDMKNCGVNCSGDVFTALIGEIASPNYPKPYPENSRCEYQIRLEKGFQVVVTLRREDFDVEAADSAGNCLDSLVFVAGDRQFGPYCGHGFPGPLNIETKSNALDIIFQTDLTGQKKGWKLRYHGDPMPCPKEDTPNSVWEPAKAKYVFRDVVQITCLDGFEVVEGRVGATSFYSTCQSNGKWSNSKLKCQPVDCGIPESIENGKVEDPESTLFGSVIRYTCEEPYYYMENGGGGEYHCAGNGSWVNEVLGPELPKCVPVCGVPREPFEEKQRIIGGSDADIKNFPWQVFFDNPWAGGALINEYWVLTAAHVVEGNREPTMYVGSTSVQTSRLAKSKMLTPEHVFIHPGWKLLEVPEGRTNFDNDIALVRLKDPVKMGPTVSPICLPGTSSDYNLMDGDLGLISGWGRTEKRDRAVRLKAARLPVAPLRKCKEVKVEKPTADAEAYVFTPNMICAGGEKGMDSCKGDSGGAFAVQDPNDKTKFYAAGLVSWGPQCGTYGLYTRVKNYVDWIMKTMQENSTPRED
T1 sequence (P00736 18-705 partner): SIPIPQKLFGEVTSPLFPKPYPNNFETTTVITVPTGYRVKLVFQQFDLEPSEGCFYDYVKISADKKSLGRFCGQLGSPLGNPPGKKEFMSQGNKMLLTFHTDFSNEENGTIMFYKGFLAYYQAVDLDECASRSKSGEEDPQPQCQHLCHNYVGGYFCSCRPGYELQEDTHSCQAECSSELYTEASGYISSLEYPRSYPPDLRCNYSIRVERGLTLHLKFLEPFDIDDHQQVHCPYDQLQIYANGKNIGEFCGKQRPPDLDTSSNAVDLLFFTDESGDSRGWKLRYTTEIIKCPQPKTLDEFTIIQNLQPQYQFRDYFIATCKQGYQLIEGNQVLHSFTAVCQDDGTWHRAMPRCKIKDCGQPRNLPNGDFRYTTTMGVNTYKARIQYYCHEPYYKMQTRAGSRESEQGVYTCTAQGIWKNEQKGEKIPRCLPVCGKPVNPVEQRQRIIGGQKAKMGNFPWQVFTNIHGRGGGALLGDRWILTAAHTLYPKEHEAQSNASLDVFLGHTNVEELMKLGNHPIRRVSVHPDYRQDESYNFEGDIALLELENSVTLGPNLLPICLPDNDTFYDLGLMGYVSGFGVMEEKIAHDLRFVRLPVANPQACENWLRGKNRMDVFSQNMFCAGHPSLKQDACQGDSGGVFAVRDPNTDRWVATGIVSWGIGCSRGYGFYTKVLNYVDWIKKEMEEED
T1 sequence (P02745 23-245 partner): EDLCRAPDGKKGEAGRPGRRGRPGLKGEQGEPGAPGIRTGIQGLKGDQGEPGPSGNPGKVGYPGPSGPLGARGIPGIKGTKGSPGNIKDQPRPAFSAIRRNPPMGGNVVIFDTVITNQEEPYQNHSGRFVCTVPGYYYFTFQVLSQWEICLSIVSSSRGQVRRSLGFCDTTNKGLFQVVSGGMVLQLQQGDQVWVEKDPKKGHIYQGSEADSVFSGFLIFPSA
T1 sequence (P02746 28-253 partner): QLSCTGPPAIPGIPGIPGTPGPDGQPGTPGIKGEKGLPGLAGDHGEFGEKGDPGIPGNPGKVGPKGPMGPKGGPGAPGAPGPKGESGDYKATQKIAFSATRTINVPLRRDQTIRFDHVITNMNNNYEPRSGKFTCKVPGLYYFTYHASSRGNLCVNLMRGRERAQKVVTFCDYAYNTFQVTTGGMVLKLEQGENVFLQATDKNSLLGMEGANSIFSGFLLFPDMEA
T1 sequence (P02747 29-245 partner): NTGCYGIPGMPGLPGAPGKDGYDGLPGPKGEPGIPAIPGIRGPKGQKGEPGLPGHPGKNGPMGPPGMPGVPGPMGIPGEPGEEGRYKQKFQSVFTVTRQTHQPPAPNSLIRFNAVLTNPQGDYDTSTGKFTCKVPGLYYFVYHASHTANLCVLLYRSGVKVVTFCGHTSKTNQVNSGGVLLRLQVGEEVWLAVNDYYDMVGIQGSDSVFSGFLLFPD
Excerpt: as §1

[5] = tested on: complement system; conditions: literature, in words; cited from earlier work
[6] = tested on: hereditary angioneurotic edema; conditions: literature, in words; cited from earlier work
[7] = tested on: human serum complement; conditions: in vitro and in vivo; reduction in total hemolytic complement activity; cited from earlier work
[8] = Table I, well number in twofold serial dilution assay, higher = more active
[9] = Table II (Intermediates), twofold serial dilution assay

O=C(Nc1cc(C(=O)O)cc(C(=O)Nc2cc(C(=O)O)cc(C(=O)Nc3ccc(S(=O)(=O)O)c4cc(S(=O)(=O)O)cc(S(=O)(=O)O)c34)c2)c1)Nc1cc(C(=O)O)cc(C(=O)Nc2cc(C(=O)O)cc(C(=O)Nc3ccc(S(=O)(=O)O)c4cc(S(=O)(=O)O)cc(S(=O)(=O)O)c34)c2)c1 [5,5'-Ureylenebis[N-[3-carboxy-5-(4,6,8-trisulfo-1-naphthylca] [5,5'-Ureylenebis[N-[3-carboxy-5-(4,6,8-trisulfo-1-naphthaylcarbamoyl)phenyl]isophthalamic acid], decasodium salt]
% Inhibition, Intraperitoneal, 30 minutes ([1]; Table I, i.p. 200 mg/kg): -86%
% Inhibition, Intraperitoneal, 60 minutes ([1]; Table I, i.p. 200 mg/kg): -89%
% Inhibition, Intraperitoneal, 120 minutes ([1]; Table I, i.p. 200 mg/kg): -96%
C-Late 035 Wells [2, 8]: +2 wells

O=C(Nc1ccc(C(=O)Nc2cc(C(=O)O)cc(C(=O)Nc3ccc(S(=O)(=O)O)c4cc(S(=O)(=O)O)cc(S(=O)(=O)O)c34)c2)c(S(=O)(=O)O)c1)Nc1ccc(C(=O)Nc2cc(C(=O)O)cc(C(=O)Nc3ccc(S(=O)(=O)O)c4cc(S(=O)(=O)O)cc(S(=O)(=O)O)c34)c2)c(S(=O)(=O)O)c1 [5,5'-[Ureylenebis[(2-sulfo-4,1-phenylenecarbonyl)-imino]]bis[N-4,6,8-trisulfo-1-naphthylisophthalamic acid], octasodium salt]
Shunt Inhibition 036 Wells [3, 8]: +5 wells
Cl 026 Wells ([4]; Table I): +6 wells
C-Late 035 Wells [2, 8]: +2 wells

Nc1ccc(C(=O)Nc2cc(C(=O)O)cc(C(=O)Nc3ccc(S(=O)(=O)[O-])c4cc(S(=O)(=O)[O-])cc(S(=O)(=O)[O-])c34)c2)c(S(=O)(=O)[O-])c1.[Na+].[Na+].[Na+].[Na+] [5-(4-Amino-2-sulfobenzamido)-N-(4,6,8-trisulfo-1-naphthyl)isophthalamic acid, tetrasodium salt]
Shunt Inhibition 036 Wells [3, 9]: N
Cl 026 Wells ([4]; Table II (Intermediates)): +3 wells
C-Late 035 Wells [2, 9]: N

Nc1cc(C(=O)O)cc(C(=O)Nc2cc(C(=O)O)cc(C(=O)Nc3ccc(S(=O)(=O)[O-])c4cc(S(=O)(=O)[O-])cc(S(=O)(=O)[O-])c34)c2)c1.[Na+].[Na+].[Na+] [5-Amino-3'-carboxy-5'-(4,6,8-trisulfo-1-naphthylcarbamoyl)isophthalanilic acid, trisodium salt]
Shunt Inhibition 036 Wells [3, 9]: N
Cl 026 Wells ([4]; Table II (Intermediates)): +3 wells
C-Late 035 Wells [2, 9]: N

O=C(Nc1ccc(C(=O)Nc2ccc(C(=O)Nc3cc(S(=O)(=O)O)cc4cc(S(=O)(=O)O)cc(S(=O)(=O)O)c34)c(S(=O)(=O)O)c2)c(S(=O)(=O)O)c1)Nc1ccc(C(=O)Nc2ccc(C(=O)Nc3cc(S(=O)(=O)O)cc4cc(S(=O)(=O)O)cc(S(=O)(=O)O)c34)c(S(=O)(=O)O)c2)c(S(=O)(=O)O)c1 [8,8'-[Ureylenebis[(2-sulfo-4,1-phenylenecarbonyl)-imino](2-sulfo-4,1-phenylenecarbonyl)imino]di-1,3,6-naphthalenetrisulfonic acid, decasodium salt]
% Inhibition, Intraperitoneal, 30 minutes ([1]; Table I, i.p. 200 mg/kg): -68%
% Inhibition, Intraperitoneal, 60 minutes ([1]; Table I, i.p. 200 mg/kg): -24%
% Inhibition, Intraperitoneal, 120 minutes ([1]; Table I, i.p. 200 mg/kg): -14%
Cl 026 Wells ([4]; Table I): +8 wells
C-Late 035 Wells [2, 8]: +1 wells

O=C(Nc1ccc(C(=O)Nc2ccc(C(=O)Nc3ccc(S(=O)(=O)[O-])c4cc(S(=O)(=O)[O-])cc(S(=O)(=O)[O-])c34)c(S(=O)(=O)[O-])c2)c(S(=O)(=O)[O-])c1)Nc1ccc(C(=O)Nc2ccc(C(=O)Nc3ccc(S(=O)(=O)[O-])c4cc(S(=O)(=O)[O-])cc(S(=O)(=O)[O-])c34)c(S(=O)(=O)[O-])c2)c(S(=O)(=O)[O-])c1.[Na+].[Na+].[Na+].[Na+].[Na+].[Na+].[Na+].[Na+].[Na+].[Na+] [8,8'-[Ureylenebis[(2-sulfo-4,1-phenylenecarbonyl)imino(2-sulfo-4,1-phenylenecarbonyl)imino]]di-1,3,5-naphthalenetrisulfonic acid, decasodium salt]
Shunt Inhibition 036 Wells [3, 8]: +4 wells
% Inhibition, Intraperitoneal, 30 minutes ([1]; Table I, i.p. 200 mg/kg): -31%
% Inhibition, Intraperitoneal, 60 minutes ([1]; Table I, i.p. 200 mg/kg): -36%
% Inhibition, Intraperitoneal, 120 minutes ([1]; Table I, i.p. 200 mg/kg): -58%
% Inhibition, Intravenous, 2 minutes ([1]; Table I, i.v. 200 mg/kg): -38%
% Inhibition, Intravenous, 30 minutes ([1]; Table I, i.v. 200 mg/kg): -47%
% Inhibition, Intravenous, 120 minutes ([1]; Table I, i.v. 200 mg/kg): -22%
Cl 026 Wells ([4]; Table I): +7 wells
C-Late 035 Wells [2, 8]: +1 wells

Nc1ccc(C(=O)Nc2ccc(C(=O)Nc3ccc(S(=O)(=O)[O-])c4cc(S(=O)(=O)[O-])cc(S(=O)(=O)[O-])c34)c(S(=O)(=O)[O-])c2)c(S(=O)(=O)[O-])c1.[Na+].[Na+].[Na+].[Na+].[Na+] [8-[4-(4-Amino-2-sulfobenzamido)-2-sulfobenzamido]-1,3,5-naphthalenetrisulfonic acid, pentasodium salt]
Shunt Inhibition 036 Wells [3, 9]: N
% Inhibition, Intraperitoneal, 30 minutes ([1]; Table II (Intermediates), i.p.): -15%
% Inhibition, Intraperitoneal, 60 minutes ([1]; Table II (Intermediates), i.p.): -17%
% Inhibition, Intraperitoneal, 120 minutes ([1]; Table II (Intermediates), i.p.): -23%
% Inhibition, Intravenous, 2 minutes ([1]; Table II (Intermediates), i.v.): -52%
% Inhibition, Intravenous, 30 minutes ([1]; Table II (Intermediates), i.v.): -28%
% Inhibition, Intravenous, 120 minutes ([1]; Table II (Intermediates), i.v.): -10%
Cl 026 Wells ([4]; Table II (Intermediates)): +4 wells
C-Late 035 Wells [2, 9]: N

Nc1ccc(C(=O)Nc2ccc(C(=O)Nc3cc(S(=O)(=O)[O-])cc4cc(S(=O)(=O)[O-])cc(S(=O)(=O)[O-])c34)c(S(=O)(=O)[O-])c2)c(S(=O)(=O)[O-])c1.[Na+].[Na+].[Na+].[Na+].[Na+] [8-[4-(4-Amino-2-sulfobenzamido)-2-sulfobenzamido]-1,3,6-naphthalenetrisulfonic acid pentasodium salt]
Shunt Inhibition 036 Wells [3, 9]: N
% Inhibition, Intravenous, 2 minutes ([1]; Table II (Intermediates), i.v.): -77%
% Inhibition, Intravenous, 30 minutes ([1]; Table II (Intermediates), i.v.): -43%
% Inhibition, Intravenous, 120 minutes ([1]; Table II (Intermediates), i.v.): -31%
Cl 026 Wells ([4]; Table II (Intermediates)): +5 wells
C-Late 035 Wells [2, 9]: N

Cc1ccc(C(=O)Nc2ccc(S(=O)(=O)O)c3cc(S(=O)(=O)O)cc(S(=O)(=O)O)c23)cc1NC(=O)c1cccc(NC(=O)Nc2cccc(C(=O)Nc3cc(C(=O)Nc4ccc(S(=O)(=O)O)c5cc(S(=O)(=O)O)cc(S(=O)(=O)O)c45)ccc3C)c2)c1 [Suramin, reference compound]
% Inhibition, Intraperitoneal, 30 minutes ([1]; Table I, i.p. 200 mg/kg): -9%
% Inhibition, Intraperitoneal, 60 minutes ([1]; Table I, i.p. 200 mg/kg): -17%
% Inhibition, Intraperitoneal, 120 minutes ([1]; Table I, i.p. 200 mg/kg): -44%
anticomplementary effect / complement inhibition [5]: moderately active as a complement inhibitor
Cl 026 Wells ([4]; Table I): +4 wells

Nc1ccc2cc(S(=O)(=O)O)cc(O)c2c1N=Nc1ccc(NC(=O)Nc2ccc(N=Nc3c(N)ccc4cc(S(=O)(=O)O)cc(O)c34)c(S(=O)(=O)O)c2)cc1S(=O)(=O)O [chloroazol fast pink, 3,3'-ureylenebis[6-(2-amino-8-hydroxy-6-sulfo-1-naphthylazo)benezenesulfonic acid], tetrasodium salt]
anticomplementary effect / complement inhibition [5]: anticomplementary effect

NCCCCCC(=O)O [epsilon-aminocaproic acid]
success in the treatment of hereditary angioneurotic edema [6]: used with success in the treatment of hereditary angioneurotic edema

NC[C@H]1CC[C@H](C(=O)O)CC1 [tranexamic acid]
success in the treatment of hereditary angioneurotic edema [6]: used with success in the treatment of hereditary angioneurotic edema

heparin
anticomplementary effect / complement inhibition [5]: anticomplementary effect

pentosan-polysulfoester
anticomplementary activity on human serum [7]: anticomplementary activity on human serum, both in vitro and in vivo
